Data taken from ChEMBL document CHEMBL1649196, “Comparative in vitro susceptibilities of human mycoplasmas and ureaplasmas to a new investigational ketolide, CEM-101” (2009).
Values after ≈ are worked out from the molar mass of the structure shown.

Tests used:
Assay type in all cases: functional
Mycoplasma genitalium = assay: Antimicrobial activity against Mycoplasma genitalium isolated from human by two fold serial dilution method; details: Mycoplasmoides genitalium
Ureaplasma urealyticum = assay: Antimicrobial activity against Ureaplasma urealyticum isolated from human by two fold serial dilution method
Mycoplasma fermentans = assay: Antimicrobial activity against Mycoplasma fermentans isolated from human by two fold serial dilution method; details: Mycoplasmopsis fermentans
[1] = system: Mycoplasmoides pneumoniae; assay: Antimicrobial activity against Mycoplasma pneumoniae isolated from human by two fold serial dilution method
Ureaplasma parvum = assay: Antimicrobial activity against Ureaplasma parvum isolated from human by two fold serial dilution method
Metamycoplasma hominis = assay: Antimicrobial activity against Mycoplasma hominis isolated from human by two fold serial dilution method

SMILES	MIC (Mycoplasma genitalium) [ng/mL]	MIC50 (Ureaplasma urealyticum) [ng/mL]	MIC90 (Ureaplasma urealyticum) [ng/mL]	MIC50 (Mycoplasma fermentans) [ng/mL]	MIC90 (Mycoplasma fermentans) [ng/mL]	MIC50 [1] [ng/mL]	MIC90 [1] [ng/mL]	MIC50 (Ureaplasma parvum) [ng/mL]	MIC90 (Ureaplasma parvum) [ng/mL]	MIC (Metamycoplasma hominis) [ng/mL]	MIC50 (Metamycoplasma hominis) [ng/mL]	MIC90 (Metamycoplasma hominis) [ng/mL]	MIC (Mycoplasma fermentans) [ng/mL]	MIC (Ureaplasma urealyticum) [ng/mL]
CC[C@H]1OC(=O)[C@H](C)[C@@H](O[C@H]2C[C@@](C)(OC)[C@@H](O)[C@H](C)O2)[C@H](C)[C@@H](O[C@@H]2O[C@H](C)C[C@H](N(C)C)[C@H]2O)[C@](C)(O)C[C@@H](C)CN(C)[C@H](C)[C@@H](O)[C@]1(C)O [AZITHROMYCIN]	≤ 0.032	2000 (≈ 2670 nM)	4000 (≈ 5340 nM)	500 (≈ 668 nM)	500 (≈ 668 nM)	0.25 (≈ 0.334 nM)	0.5 (≈ 0.668 nM)	2000 (≈ 2670 nM)	4000 (≈ 5340 nM)					
C[C@H]1c2cccc(O)c2C(=O)C2=C(O)[C@]3(O)C(=O)C(C(N)=O)=C(O)[C@@H](N(C)C)[C@@H]3[C@@H](O)[C@@H]21.O [DOXYCYCLINE]	≤ 8	1000	16000	125	500	125	250	8000	16000		125	8000		
C[C@H]1COc2c(N3CCN(C)CC3)c(F)cc3c(=O)c(C(=O)O)cn1c23.C[C@H]1COc2c(N3CCN(C)CC3)c(F)cc3c(=O)c(C(=O)O)cn1c23.O [LEVOFLOXACIN]	125	500	1000	31	125	500	500	500	2000		250	500		500
CC[C@H]1OC(=O)[C@@](C)(F)C(=O)[C@H](C)[C@@H](O[C@@H]2O[C@H](C)C[C@H](N(C)C)[C@H]2O)[C@](C)(OC)C[C@@H](C)C(=O)[C@H](C)[C@H]2N(CCCCn3cc(-c4cccc(N)c4)nn3)C(=O)O[C@]12C [SOLITHROMYCIN]	≤ 0.032	8 (≈ 9.47 nM)	31 (≈ 36.7 nM)	≤ 8	≤ 8	0.032 (≈ 0.0379 nM)	0.125 (≈ 0.148 nM)	8 (≈ 9.47 nM)	16 (≈ 18.9 nM)		4 (≈ 4.73 nM)	8 (≈ 9.47 nM)	≤ 8	
CC[C@H]1OC(=O)[C@H](C)C(=O)[C@H](C)[C@@H](O[C@@H]2O[C@H](C)C[C@H](N(C)C)[C@H]2O)[C@](C)(OC)C[C@@H](C)C(=O)[C@H](C)[C@H]2N(CCCCn3cnc(-c4cccnc4)c3)C(=O)O[C@]12C [TELITHROMYCIN]	≤ 0.03	63 (≈ 77.6 nM)	250 (≈ 308 nM)	≤ 8	16 (≈ 19.7 nM)	0.25 (≈ 0.308 nM)	1 (≈ 1.23 nM)	63 (≈ 77.6 nM)	125 (≈ 154 nM)		250 (≈ 308 nM)	500 (≈ 616 nM)		

Now from value to compound, other results behind:

MIC (Mycoplasma genitalium) [ng/mL]	MIC50 (Ureaplasma urealyticum) [ng/mL]	MIC90 (Ureaplasma urealyticum) [ng/mL]	MIC50 (Mycoplasma fermentans) [ng/mL]	MIC90 (Mycoplasma fermentans) [ng/mL]	MIC50 [1] [ng/mL]	MIC90 [1] [ng/mL]	MIC50 (Ureaplasma parvum) [ng/mL]	MIC90 (Ureaplasma parvum) [ng/mL]	MIC (Metamycoplasma hominis) [ng/mL]	MIC50 (Metamycoplasma hominis) [ng/mL]	MIC90 (Metamycoplasma hominis) [ng/mL]	MIC (Mycoplasma fermentans) [ng/mL]	SMILES	MIC (Ureaplasma urealyticum) [ng/mL]
			16 (≈ 37.6 nM)	31 (≈ 72.9 nM)					≤ 8	≤ 8	16 (≈ 37.6 nM)		CCC[C@@H]1C[C@@H](C(=O)N[C@@H]([C@H]2O[C@H](SC)[C@H](O)[C@@H](O)[C@H]2O)[C@H](C)Cl)N(C)C1 [CLINDAMYCIN]	
4000 (≈ 11900 nM)		> 256000	1000 (≈ 2960 nM)	4000 (≈ 11900 nM)	64000 (≈ 190000 nM)	128000 (≈ 379000 nM)	> 256000	> 256000		2000 (≈ 5930 nM)	4000 (≈ 11900 nM)		CC(=O)NC[C@H]1CN(c2ccc(N3CCOCC3)c(F)c2)C(=O)O1 [LINEZOLID]	≥ 256000
